≈ marks a conversion by molar mass, not a printed value. Calls of active or inactive are those of the source. The calls are words filed in the database; no cut-off is given here.
What was measured:
[1] = system: Acinetobacter baumannii; test: Antibacterial activity against Acinetobacter baumannii ATCC 17978 incubated for 18 to 24 hrs by CLSI based microdilution broth method; assay type: functional; conditions: Acinetobacter baumannii, ATCC 17978; time 18-24 hrs
[2] = system: Streptococcus pyogenes; test: Antibacterial activity against Streptococcus pyogenes ATCC 12344 incubated for 18 to 24 hrs by CLSI based microdilution broth method; assay type: functional; conditions: time 18-24 hrs
[3] = system: Klebsiella pneumoniae; test: Antibacterial activity against Klebsiella pneumoniae ATCC 13833 incubated for 18 to 24 hrs by CLSI based microdilution broth method; assay type: functional; conditions: Klebsiella pneumoniae, ATCC 13833; time 18-24 hrs; read-out: MIC
[4] = system: Bacillus subtilis; test: Antibacterial activity against Bacillus subtilis ATCC 6633 incubated for 18 to 24 hrs by CLSI based microdilution broth method; assay type: functional; conditions: time 18-24 hrs
[5] = system: Pseudomonas aeruginosa; test: Antibacterial activity against Pseudomonas aeruginosa ATCC 27853 incubated for 18 to 24 hrs by CLSI based microdilution broth method; assay type: functional; conditions: Pseudomonas aeruginosa, ATCC 27853; time 18-24 hrs
[6] = system: Enterococcus faecalis; test: Antibacterial activity against Enterococcus faecalis ATCC 19433 incubated for 18 to 24 hrs by CLSI based microdilution broth method; assay type: functional; conditions: time 18-24 hrs
[7] = system: Escherichia coli; test: Antibacterial activity against Escherichia coli CCUGT incubated for 18 to 24 hrs by CLSI based microdilution broth method; assay type: functional; conditions: Escherichia coli, CCUGT; time 18-24 hrs; read-out: MIC
[8] = system: Staphylococcus aureus; test: Antibacterial activity against Staphylococcus aureus ATCC 25923 incubated for 18 to 24 hrs by CLSI based microdilution broth method; assay type: functional; conditions: time 18-24 hrs
[9] = system: Acinetobacter baumannii; test: Antibacterial activity against Acinetobacter baumannii ATCC 17978 at 256 ug/ml incubated for 18 to 24 hrs by CLSI based microdilution broth method; assay type: functional, organism-based; conditions: dose 256.0 µg/ml, time 18-24 hrs
[10] = system: Pseudomonas aeruginosa; test: Antibacterial activity against Pseudomonas aeruginosa ATCC 27853 at 256 ug/ml incubated for 18 to 24 hrs by CLSI based microdilution broth method; assay type: functional, organism-based; conditions: dose 256.0 µg/ml, time 18-24 hrs

| SMILES | MIC [1] | MIC [2] | MIC [3] | MIC [4] | MIC [5] | MIC [6] | MIC [7] | MIC [8] | Activity [9] | Activity [10] |
| --- | --- | --- | --- | --- | --- | --- | --- | --- | --- | --- |
| O=C(O)C(F)(F)F.[N-]=[N+]=NCCCCCCCCN(CCCCCCCCNC(=N)NCC1CC1)C(=O)N(CCCCCCCCN=[N+]=[N-])CCCCCCCCNC(=N)NCC1CC1 | 64 µg/mL | 8 µg/mL | 16 µg/mL | 32 µg/mL | 128 µg/mL | 8 µg/mL | 16 µg/mL | 4 µg/mL |  |  |
| CSCCNC(=N)NCCCCCCCCN(CCCCCCCCNC(=N)N)C(=O)N(CCCCCCCCNC(=N)N)CCCCCCCCNC(=N)NCCSC.O=C(O)C(F)(F)F | 16 µg/mL | 1 µg/mL | 4 µg/mL | 1 µg/mL | 32 µg/mL | 2 µg/mL | 2 µg/mL | 0.5 µg/mL |  |  |
| N=C(N)NCCCCCCCCN(CCCCCCCCNC(=N)NC1CCCC1)C(=O)N(CCCCCCCCNC(=N)N)CCCCCCCCNC(=N)NC1CCCC1.O=C(O)C(F)(F)F | 4 µg/mL | 1 µg/mL | 1 µg/mL | 1 µg/mL | 8 µg/mL | 1 µg/mL | 1 µg/mL | 0.25 µg/mL |  |  |
| N=C(N)NCCCCCCCCN(CCCCCCCCNC(=N)NCC1CC1)C(=O)N(CCCCCCCCNC(=N)N)CCCCCCNC(=N)NCC1CC1.O=C(O)C(F)(F)F | 64 µg/mL | 4 µg/mL | 4 µg/mL | 4 µg/mL | 128 µg/mL | 4 µg/mL | 8 µg/mL | 1 µg/mL |  |  |
| N=C(N)NCCCCCCN(CCCCCCCCNC(=N)NCC1CC1)C(=O)N(CCCCCCCCNC(=N)NCC1CC1)CCCCCCNC(=N)N.O=C(O)C(F)(F)F | 32 µg/mL | 1 µg/mL | 2 µg/mL | 1 µg/mL | 32 µg/mL | 4 µg/mL | 2 µg/mL | 0.25 µg/mL |  |  |
| N=C(N)NCCCCCCCCN(CCCCCCCCNC(=N)NCC1CC1)C(=O)N(CCCCCCNC(=N)N)CCCCCCNC(=N)NCC1CC1.O=C(O)C(F)(F)F | 16 µg/mL | 1 µg/mL | 4 µg/mL | 2 µg/mL | 16 µg/mL | 4 µg/mL | 8 µg/mL | 0.5 µg/mL |  |  |
| N=C(N)NCCCCCCCN(CCCCCCCNC(=N)NCC1CC1)C(=O)N(CCCCCCCNC(=N)N)CCCCCCCNC(=N)NCC1CC1.O=C(O)C(F)(F)F | 32 µg/mL | 4 µg/mL | 8 µg/mL | 2 µg/mL | 32 µg/mL | 8 µg/mL | 8 µg/mL | 2 µg/mL |  |  |
| CC(C)=CCC/C(C)=C/CNC(=N)NCCCCCCCCN(CCCCCCCCNC(=N)N)C(=O)N(CCCCCCCCNC(=N)N)CCCCCCCCNC(=N)NC/C=C(\C)CCC=C(C)C.O=C(O)C(F)(F)F | 4 µg/mL | 2 µg/mL | 2 µg/mL | 2 µg/mL | 8 µg/mL | 2 µg/mL | 2 µg/mL | 1 µg/mL |  |  |
| N=C(N)NCCCCCCCCN(CCCCCCCCNC(=N)NCC1CC1)C(=O)N(CCCCCCCCNC(=N)NCC1CC1)CCCCCCNC(=N)N.O=C(O)C(F)(F)F | 16 µg/mL | 0.5 µg/mL | 1 µg/mL | 0.5 µg/mL | 16 µg/mL | 1 µg/mL | 1 µg/mL | 0.25 µg/mL |  |  |
| CN[C@H](CC(C)C)C(=O)N[C@H]1C(=O)N[C@@H](CC(N)=O)C(=O)N[C@H]2C(=O)N[C@H]3C(=O)N[C@H](C(=O)N[C@H](C(=O)O)c4cc(O)cc(O)c4-c4cc3ccc4O)[C@H](O)c3ccc(c(Cl)c3)Oc3cc2cc(c3O[C@@H]2O[C@H](CO)[C@@H](O)[C@H](O)[C@H]2O[C@H]2C[C@](C)(N)[C@H](O)[C@H](C)O2)Oc2ccc(cc2Cl)[C@H]1O [VANCOMYCIN] |  | 1 µg/mL (≈ 0.69 µM) |  | 0.5 µg/mL (≈ 0.345 µM) |  | 1 µg/mL (≈ 0.69 µM) |  |  |  |  |
| CC(C)CNC(=N)NCCCCCCCCN(CCCCCCCCNC(=N)N)C(=O)N(CCCCCCCCNC(=N)N)CCCCCCCCNC(=N)NCC(C)C.O=C(O)C(F)(F)F | 8 µg/mL | 4 µg/mL | 4 µg/mL | 2 µg/mL | 16 µg/mL | 4 µg/mL | 4 µg/mL | 2 µg/mL |  |  |
| CNC(=S)NCCCCCCCCN(CCCCCCCCNC(=N)NCC1CC1)C(=O)N(CCCCCCCCNC(=N)NCC1CC1)CCCCCCCCNC(=S)NC.O=C(O)C(F)(F)F | 128 µg/mL | 4 µg/mL | 16 µg/mL | 4 µg/mL | 64 µg/mL | 4 µg/mL | 8 µg/mL | 2 µg/mL |  |  |
| C/C=C/CNC(=N)NCCCCCCCCNC(N)=O.O=C(O)C(F)(F)F |  | 32 µg/mL | 128 µg/mL | 64 µg/mL |  | 64 µg/mL | 128 µg/mL | 32 µg/mL | inactive | inactive |
| N=C(N)NCCCCCCCCN(CCCCCCNC(=N)NCC1CC1)C(=O)N(CCCCCCCCNC(=N)N)CCCCCCNC(=N)NCC1CC1.O=C(O)C(F)(F)F | 64 µg/mL | 1 µg/mL | 4 µg/mL | 1 µg/mL | 128 µg/mL | 8 µg/mL | 4 µg/mL | 0.25 µg/mL |  |  |
| N=C(N)NCCCCCCCCCN(CCCCCCCCCNC(=N)NCC1CC1)C(=O)N(CCCCCCCCCNC(=N)N)CCCCCCCCCNC(=N)NCC1CC1.O=C(O)C(F)(F)F | 8 µg/mL | 2 µg/mL | 16 µg/mL | 4 µg/mL | 16 µg/mL | 4 µg/mL | 8 µg/mL | 4 µg/mL |  |  |
| CCCCCCCCCC(=O)N[C@@H](Cc1c[nH]c2ccccc12)C(=O)N[C@H](CC(N)=O)C(=O)N[C@@H](CC(=O)O)C(=O)N[C@@H]1C(=O)NCC(=O)N[C@@H](CCCN)C(=O)N[C@@H](CC(=O)O)C(=O)N[C@H](C)C(=O)N[C@@H](CC(=O)O)C(=O)NCC(=O)N[C@H](CO)C(=O)N[C@@H]([C@H](C)CC(=O)O)C(=O)N[C@@H](CC(=O)c2ccccc2N)C(=O)O[C@@H]1C |  | 0.5 µg/mL (≈ 0.309 µM) |  | 1 µg/mL (≈ 0.617 µM) |  | 1 µg/mL (≈ 0.617 µM) |  | 0.12 µg/mL (≈ 0.074 µM) |  |  |

Continued by falling MIC [2], values first:

| MIC [1] | MIC [2] | MIC [3] | MIC [4] | MIC [5] | MIC [6] | MIC [7] | MIC [8] | SMILES | Activity [9] | Activity [10] |
| --- | --- | --- | --- | --- | --- | --- | --- | --- | --- | --- |
| 64 µg/mL | 16 µg/mL | 32 µg/mL | 16 µg/mL | 128 µg/mL | 16 µg/mL | 32 µg/mL | 8 µg/mL | N=C(N)NCCCCCCCCN(CCCCCCCCNC(=N)NCCC12CC3CC(CC(C3)C1)C2)C(=O)N(CCCCCCCCNC(=N)N)CCCCCCCCNC(=N)NCCC12CC3CC(CC(C3)C1)C2.O=C(O)C(F)(F)F |  |  |
| 32 µg/mL | 4 µg/mL | 8 µg/mL | 2 µg/mL | 32 µg/mL | 4 µg/mL | 16 µg/mL | 1 µg/mL | N=C(N)NCCCCCCCN(CCCCCCCNC(=N)NCC1CC1)C(=O)N(CCCCCCNC(=N)N)CCCCCCNC(=N)NCC1CC1.O=C(O)C(F)(F)F |  |  |
| 64 µg/mL | 4 µg/mL | 16 µg/mL | 4 µg/mL | 128 µg/mL | 8 µg/mL | 16 µg/mL | 4 µg/mL | CNC(=O)NCCCCCCCCN(CCCCCCCCNC(=N)NCC1CC1)C(=O)N(CCCCCCCCNC(=N)NCC1CC1)CCCCCCCCNC(=O)NC.O=C(O)C(F)(F)F |  |  |
| 8 µg/mL | 2 µg/mL | 2 µg/mL | 2 µg/mL | 16 µg/mL | 2 µg/mL | 2 µg/mL | 1 µg/mL | C/C=C/CNC(=N)NCCCCCCCCN(CCCCCCCCNC(=N)N)C(=O)N(CCCCCCCCNC(=N)N)CCCCCCCCNC(=N)NC/C=C/C.O=C(O)C(F)(F)F |  |  |
| 4 µg/mL | 2 µg/mL | 2 µg/mL | 1 µg/mL | 8 µg/mL | 2 µg/mL | 2 µg/mL | 1 µg/mL | CCCCNC(=N)NCCCCCCCCN(CCCCCCCCNC(=N)N)C(=O)N(CCCCCCCCNC(=N)N)CCCCCCCCNC(=N)NCCCC.O=C(O)C(F)(F)F |  |  |
| 32 µg/mL | 1 µg/mL | 4 µg/mL | 1 µg/mL | 64 µg/mL | 2 µg/mL | 4 µg/mL | 1 µg/mL | N=C(N)NCCCCCCCCN(CCCCCCCCNC(=N)NCCN1CCOCC1)C(=O)N(CCCCCCCCNC(=N)N)CCCCCCCCNC(=N)NCCN1CCOCC1.O=C(O)C(F)(F)F |  |  |
| 8 µg/mL | 1 µg/mL | 1 µg/mL | 1 µg/mL | 8 µg/mL | 1 µg/mL | 0.5 µg/mL | 0.5 µg/mL | CCCNC(=N)NCCCCCCCCN(CCCCCCCCNC(=N)N)C(=O)N(CCCCCCCCNC(=N)N)CCCCCCCCNC(=N)NCCC.O=C(O)C(F)(F)F |  |  |
| 8 µg/mL | 0.5 µg/mL | 1 µg/mL | 0.5 µg/mL | 8 µg/mL | 0.5 µg/mL | 0.5 µg/mL | 0.25 µg/mL | CC(C)NC(=N)NCCCCCCCCN(CCCCCCCCNC(=N)N)C(=O)N(CCCCCCCCNC(=N)N)CCCCCCCCNC(=N)NC(C)C.O=C(O)C(F)(F)F |  |  |
| 8 µg/mL | 0.5 µg/mL | 2 µg/mL | 0.5 µg/mL | 16 µg/mL | 1 µg/mL | 1 µg/mL | 0.5 µg/mL | COCCNC(=N)NCCCCCCCCN(CCCCCCCCNC(=N)N)C(=O)N(CCCCCCCCNC(=N)N)CCCCCCCCNC(=N)NCCOC.O=C(O)C(F)(F)F |  |  |
